Two molecules from patent US11926615B1, “2-alkoxy[4,3:6,4-terpyridine]-3-carbonitriles as antimicrobial compounds” (KING FAISAL UNIVERSITY, priority 2023, dated 2024) can be followed below.

Common to all, as to format: cell-based
For one experiment, the system named is Bacillus Cereus. Nature of the experiment: Agar plate disc-diffusion, antibacterial inhibition zone. The note with it: DMSO control zone subtracted; for inhibition zone, Bacillus Cereus, A: A = concentration of comp. = 10,000 μL; for inhibition zone, Bacillus Cereus, B: B = concentration of comp. = 30.000 μL; for inhibition zone, Bacillus Cereus, C: C = concentration of comp. = 50,000 μL. The protocol: (§1) The agar plate disc-diffusion method was applied. Sterilized filter papers (6 mm in diameter) were wetted with 10 μL of a solution of 2-ethoxy[4,3:6,4-terpyridine]-3-carbonitrile (4) and 2-methoxy[4,3:6,4-terpyridine]-3-carbonitrile (5) to be tested, containing […], and the discs were allowed to air dry. The discs were then placed onto the surface of agar plates (nutrient agar for bacteria and Sabouraud's dextrose agar for fungi) seeded with the test organism. Each plate contained 15 mL of the agar medium, previously seeded with 0.2 mL of the broth culture of each organism pregrown for 18 hours. The plates were incubated at 37° C. for 48 h, and 72 h for fungi. The inhibition zones were measured in mm. Discs impregnated with DMSO were used as a control, and its inhibition zone was subtracted from the tested compound actual inhibition zone.
A general note: A growth-free zone around the sample is the usual read-out of agar diffusion tests.

A further experiment has as its system Escherichia coli. The experiment is described as above. The note with it: DMSO control zone subtracted; for inhibition zone, Escherichia coli, A: A = concentration of comp. = 10,000 μL; for inhibition zone, Escherichia coli, B: B = concentration of comp. = 30.000 μL; for inhibition zone, Escherichia coli, C: C = concentration of comp. = 50,000 μL. The protocol:
as §1

The subject of the next experiment is Pseudomonas aeruginosa. The description is as above. The note with it: DMSO control zone subtracted; for inhibition zone, Pseudomonas aeruginosa, A: A = concentration of comp. = 10,000 μL; for inhibition zone, Pseudomonas aeruginosa, B: B = concentration of comp. = 30.000 μL; for inhibition zone, Pseudomonas aeruginosa, C: C = concentration of comp. = 50,000 μL. The protocol:
as §1

The next experiment concerns Staphylococcus aureus. Described as above. The note with it: DMSO control zone subtracted; for inhibition zone, Staphylococcus aureus, A: A = concentration of comp. = 10,000 μL; for inhibition zone, Staphylococcus aureus, B: B = concentration of comp. = 30.000 μL; for inhibition zone, Staphylococcus aureus, C: C = concentration of comp. = 50,000 μL. The protocol:
as §1

For another experiment, the system named is Aspergillus flavus. Nature of the experiment: Agar plate disc-diffusion, antifungal inhibition zone. The note with it: DMSO control zone subtracted; for inhibition zone, Aspergillus flavus, A: A = concentration of comp. = 10,000 μL; for inhibition zone, Aspergillus flavus, B: B = concentration of comp. = 30.000 μL; for inhibition zone, Aspergillus flavus, C: C = concentration of comp. = 50,000 μL. The protocol: as §1

The subject of experiment [1] is Chrysosporium keratinophilum. The description is as above. The note with it: DMSO control zone subtracted; for inhibition zone, Chrysosporium keratinophilum, A: A = concentration of comp. = 10,000 μL; for inhibition zone, Chrysosporium keratinophilum, B: B = concentration of comp. = 30.000 μL; for inhibition zone, Chrysosporium keratinophilum, C: C = concentration of comp. = 50,000 μL. The protocol:
as §1

As to `CCOc1nc(-c2ccncc2)cc(-c2cccnc2)c1C#N` [Compound 4, 2-ethoxy[4,3:6,4-terpyridine]-3-carbonitrile], in the experiment on Bacillus Cereus, the “inhibition zone, Bacillus Cereus, A” value was determined as 27 mm; the “inhibition zone, Bacillus Cereus, B” value was determined as 34 mm; the “inhibition zone, Bacillus Cereus, C” value was 39 mm. In the experiment with Escherichia coli, the “inhibition zone, Escherichia coli, A” value amounted to 33 mm; the “inhibition zone, Escherichia coli, B” value worked out at 41 mm; the “inhibition zone, Escherichia coli, C” value amounted to 49 mm. Also, in the experiment on Pseudomonas aeruginosa, the “inhibition zone, Pseudomonas aeruginosa, A” value worked out at 28 mm; the “inhibition zone, Pseudomonas aeruginosa, B” value was determined as 34 mm; the “inhibition zone, Pseudomonas aeruginosa, C” value is 41 mm. Further, in the experiment on Staphylococcus aureus, the “inhibition zone, Staphylococcus aureus, A” value worked out at 19 mm; the “inhibition zone, Staphylococcus aureus, B” value is 23 mm; the “inhibition zone, Staphylococcus aureus, C” value was determined as 33 mm. In the experiment with Aspergillus flavus, the “inhibition zone, Aspergillus flavus, A” value is 30 mm; the “inhibition zone, Aspergillus flavus, B” value was found to be 34 mm; the “inhibition zone, Aspergillus flavus, C” value worked out at 41 mm. In experiment [1], the “inhibition zone, Chrysosporium keratinophilum, A” value turned out to be 26 mm; the “inhibition zone, Chrysosporium keratinophilum, B” value is listed as 31 mm; the “inhibition zone, Chrysosporium keratinophilum, C” value amounted to 39 mm.

With `COc1nc(-c2ccncc2)cc(-c2cccnc2)c1C#N` [Compound 5, 2-methoxy[4,3:6,4-terpyridine]-3-carbonitrile], in the experiment with Bacillus Cereus, the “inhibition zone, Bacillus Cereus, A” value is listed as 32 mm; the “inhibition zone, Bacillus Cereus, B” value was determined as 36 mm; the “inhibition zone, Bacillus Cereus, C” value is recorded as 41 mm. Also, in the experiment with Escherichia coli, the “inhibition zone, Escherichia coli, A” value is given as 32 mm; the “inhibition zone, Escherichia coli, B” value amounted to 39 mm; the “inhibition zone, Escherichia coli, C” value is recorded as 42 mm. In addition, in the experiment with Pseudomonas aeruginosa, the “inhibition zone, Pseudomonas aeruginosa, A” value is recorded as 26 mm; the “inhibition zone, Pseudomonas aeruginosa, B” value stood at 32 mm; the “inhibition zone, Pseudomonas aeruginosa, C” value stood at 40 mm. Further, in the experiment with Staphylococcus aureus, the “inhibition zone, Staphylococcus aureus, A” value was found to be 23 mm; the “inhibition zone, Staphylococcus aureus, B” value stood at 28 mm; the “inhibition zone, Staphylococcus aureus, C” value is on record as 37 mm. Further, in the experiment with Aspergillus flavus, the “inhibition zone, Aspergillus flavus, A” value was determined as 19 mm; the “inhibition zone, Aspergillus flavus, B” value amounted to 24 mm; the “inhibition zone, Aspergillus flavus, C” value is 30 mm. In addition, in experiment [1], the “inhibition zone, Chrysosporium keratinophilum, A” value came out at 27 mm; the “inhibition zone, Chrysosporium keratinophilum, B” value is given as 30 mm; the “inhibition zone, Chrysosporium keratinophilum, C” value is 46 mm.
